Source: patent US20260152484A1, “HETEROCYCLIC COMPOUNDS AS TRIGGERING RECEPTOR EXPRESSED ON MYELOID CELLS 2 AGONISTS” (Vigil Neuroscience, Inc., priority 2021, published 2026)

These compounds were tested against T1, human TREM2 (Homo sapiens, UniProt Q9NZC2) (assay: Cellular phosphorylation of Syk (AlphaLisa) in HEK293T-hTREM2 cells, TREM2 agonist potency). Settings: HEK293 cells expressing human TREM2 and DAP12; pSyk AlphaLisa; Table D.
T1 construct: expressed in transfected cells; host or cells: HEK293T (HEK293T-hTREM2 cells)
Format: cell-based
Protocol: In Vitro Measurement of Triggering Receptor Expressed on Myeloid Cells 2 Activity Using Cellular Phosphorylation of Spleen Tyrosine Kinase (“Syk”) Assays
Measurement of TREM2 agonist potency was done using a HEK cell line expressing human TREM2 and DAP12 (HEK293T-hTREM2 cells). Binding of small molecules to, and activation of, TREM2 increases the phosphorylation of Syk. The resultant levels of Syk phosphorylation are measured using a commercial AlphaLisa reagent kit. To perform the assay, HEK-hTREM2 cells were plated at 14,000 cells per well in a 384 well plate, in 25 μL of complete growth media and incubated at 37° C., 5% CO2 for 20-24 hours.
Prior to the assay, test compounds were diluted in the 384 well plates in assay buffer and allowed to equilibrate for 30 minutes. Growth media was removed from cell plates by inversion on blotting paper, and 25 μL of test articles in assay buffer was added to cells. Cells were incubated for 45 minutes at room temperature. After 45 minutes, assay buffer was removed and 10 μL of lysis buffer was added. Plates were shaken for 20 minutes at 350 RPM at room temperature. After complete lysis, AlphaLisa reagents were added to the lysate, and fluourescence intensity was measured using a Perkin Elmer Envision plate reader. Intensities were used to generate a standard curve, and % activation was calculated. Curve fitting was performed using Prism v9 software, log(agonist) vs response—variable slope (four parameters), and EC50s were calculated from the curve fit.
The results presented in Table D have been generated with the in vitro assay described above. This assay may be used to test any of the compounds described herein to assess and characterize a compound's ability to act as an agonist of TREM2.

T1 sequence (Q9NZC2 19-230): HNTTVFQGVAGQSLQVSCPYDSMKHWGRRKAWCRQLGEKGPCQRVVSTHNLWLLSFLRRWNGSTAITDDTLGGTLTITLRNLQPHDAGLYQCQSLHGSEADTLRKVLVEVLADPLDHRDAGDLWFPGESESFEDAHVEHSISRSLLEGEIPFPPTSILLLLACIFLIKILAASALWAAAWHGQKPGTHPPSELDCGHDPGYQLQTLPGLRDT
T1 sequence (O43914 22-113 partner): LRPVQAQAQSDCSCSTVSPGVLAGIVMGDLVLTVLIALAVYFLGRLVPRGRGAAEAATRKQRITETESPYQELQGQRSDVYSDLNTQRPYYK

| EC50 | Structure (SMILES) |
| --- | --- |
| 3 to 100 µM | O=c1c2nc(NCCc3ccccc3)sc2c(-c2ccc(Cl)cc2)nn1CCc1ccccc1 [compound 37, 7-(4-chlorophenyl)-5-(2-phenylethyl)-2-(2-phenylethylamino)thiazolo[4,5-d]pyridazin-4-one] |
| 3 to 100 µM | Cc1nc2c(=O)n(C(C)Cc3ccc(Cl)cc3)nc(-c3ccc(Cl)cc3)c2s1 (stereo not shown) [compound 30, 7-(4-chlorophenyl)-5-(1-(4-chlorophenyl)propan-2-yl)-2-methylthiazolo[4,5-d]pyridazin-4 (5H)-one] |
| 3 to 100 µM | CNC(Cn1nc(-c2ccc(Cl)cc2)c2sc(C)nc2c1=O)c1ccc(Cl)cc1 (stereo not shown) [compound 25, 7-(4-chlorophenyl)-5-(2-(4-chlorophenyl)-2-(methylamino)ethyl)-2-methylthiazolo[4,5-d]pyridazin-4(5H)-one] |
| 0.5 to 3 µM | Cc1cc2c(-c3ccc(Cl)cc3)nn(-c3ccc(OC(F)(F)F)cc3)c(=O)c2nc1C [compound 1, 5-(4-chlorophenyl)-2,3-dimethyl-7-(4-(trifluoromethoxy)phenyl)pyrido[2,3-d]pyridazin-8 (7H)-one] |
| 3 to 100 µM | Cc1nc2c(=O)n(CCc3ccccc3)nc(-c3ccccc3)c2s1 [compound 29, 2-methyl-5-phenethyl-7-phenylthiazolo[4,5-d]pyridazin-4(5H)-one] |
| 3 to 100 µM | Cc1nc2c(=O)n(CC(=O)c3ccc(Cl)cc3)nc(-c3ccc(Cl)cc3)c2s1 [compound 24, 7-(4-chlorophenyl)-5-(2-(4-chlorophenyl)-2-oxoethyl)-2-methylthiazolo[4,5-d]pyridazin-4(5H)-one] |
| 3 to 100 µM | Nc1nc2c(=O)n(CCc3ccccc3)nc(-c3ccc(Cl)cc3)c2s1 [compound 33, 2-amino-7-(4-chlorophenyl)-5-phenethylthiazolo[4,5-d]pyridazin-4(5H)-one] |
| 3 to 100 µM | Cc1nc2c(=O)n(-c3ccc(OC(F)(F)F)cc3)nc(-c3ccc(Cl)cc3)c2s1 [compound 41, 7-(4-chlorophenyl)-2-methyl-5-(4-(trifluoromethoxy)phenyl)thiazolo[4,5-d]pyridazin-4(5H)-one] |
| 3 to 100 µM | Cc1nc2c(=O)n(CCc3ccccc3)nc(-c3ccc(O)cc3)c2s1 [compound 39, 7-(4-hydroxyphenyl)-2-methyl-5-phenethylthiazolo[4,5-d]pyridazin-4(5H)-one] |
| 0.05 to 0.5 µM | Cc1nc2c(=O)n(-c3ccc(C(=O)O)cc3)nc(-c3ccc(Cl)cc3)c2s1 [compound 42, 4-(7-(4-chlorophenyl)-2-methyl-4-oxothiazolo[4,5-d]pyridazin-5(4H)-yl)benzoic acid] |
| 3 to 100 µM | Cc1nc2c(=O)n(CC(O)c3ccc(Cl)cc3)nc(-c3ccc(Cl)cc3)c2s1 (stereo not shown) [compound 26, 7-(4-chlorophenyl)-5-(2-(4-chlorophenyl)-2-hydroxyethyl)-2-methylthiazolo[4,5-d]pyridazin-4(5H)-one] |

Same assay, conditions: HEK293 cells expressing human TREM2 and DAP12; pSyk AlphaLisa; Table D-2

| EC50 | Structure (SMILES) |
| --- | --- |
| 0.05 to 0.5 µM | Cc1cc2c(-c3ccc(Cl)cc3)nn(-c3ccnc(Nc4cnn(C5CC5)c4)c3)c(=O)c2nc1C [I-120, 5-(4-chlorophenyl)-7-(2-((1-cyclopropyl-1H-pyrazol-4-yl)amino)pyridin-4-yl)-2,3-dimethylpyrido[2,3-d]pyridazin-8 (7H)-one] |
| 0.5 to 3 µM | Cc1cc2c(-c3ccc(Cl)cc3)nn(-c3ccc(NC4COC4)nc3)c(=O)c2nc1C [I-118, 5-(4-chlorophenyl)-2,3-dimethyl-7-[6-(oxetan-3-ylamino)-3-pyridyl]pyrido [2,3-d]pyridazin-8-one; formic acid] |
| 0.5 to 3 µM | Cc1cc2c(-c3ccc(Cl)cc3F)nn(-c3ccnc(C4COC4)c3)c(=O)c2cc1C [I-111, 4-(4-chloro-2-fluoro-phenyl)-6,7-dimethyl-2-[2-(oxetan-3-yl)-4-pyridyl]phthalazin-1-one] |
| 0.5 to 3 µM | Cc1cc2c(-c3ccc(Cl)cc3)nn(-c3ccc(N(C)C4COC4)nc3)c(=O)c2nc1C [I-119, 5-(4-chlorophenyl)-2,3-dimethyl-7-[6-[methyl(oxetan-3-yl)amino]-3-pyridyl]pyrido[2,3-d]pyridazin-8-one; formic acid] |
| 0.5 to 3 µM | Cc1cc2c(-c3ccc(Cl)cc3)cn(-c3ccc(OC(F)(F)F)cc3)c(=O)c2nc1C [I-122, 5-(4-chlorophenyl)-2,3-dimethyl-7-(4-(trifluoromethoxy)phenyl)-1,7-naphthyridin-8 (7H)-one] |
